Source: the Deep4Chem optical property database
Values belong to the molecule of their own block, whether it stands above or below them.

Experiment: solvent given as SMILES

SMILES: CN(C)c1ccc2nc3c(cc2c1)c(-c1ccccc1)nn3-c1ccccc1
- absorption maximum (in C1CCCCC1): 439.56 nm
- absorption maximum (in C1CCOC1): 450.05 nm
- absorption maximum (in CC#N): 449.24 nm
- absorption maximum (in CC(C)=O): 450.45 nm
- absorption maximum (in CCCCCl): 448.43 nm
- absorption maximum (in CCCCOCCCC): 444.64 nm
- absorption maximum (in CN(C)C=O): 452.69 nm

SMILES: COc1ccccc1C1=NC2c3cccc4cccc(c34)C2N1c1ccccc1 (centres undefined)
- absorption maximum (in Cc1ccccc1): 312 nm

- absorption maximum (in CC#N): 348 nm
- absorption maximum (in CCCCCC): 342 nm
SMILES: Nc1ccc(/C=C/c2ccc3ccccc3c2)cc1

SMILES: c1ccc2c(c1)CC1(C2)c2cc(N3c4ccccc4Sc4ccccc43)ccc2-c2ccc(N3c4ccccc4Sc4ccccc43)cc21
- absorption maximum (in Cc1ccccc1): 310 nm

- absorption maximum (in ClCCl): 379 nm
SMILES: O=C(c1sc(-c2ccc(-c3cc(-c4cccs4)c(C(=O)N4CCOCC4)s3)s2)cc1-c1cccs1)N1CCOCC1

- absorption maximum (in C1CCOC1): 420 nm
SMILES: CCCCCCCCCc1c2ccccc2cc2c1oc1c3oc4c5oc6cc7ccccc7cc6c5c5ccccc5c4c3c3ccccc3c21

- absorption maximum (in CCO): 344 nm
- absorption maximum (in ClC(Cl)Cl): 345 nm
SMILES: COc1ccc2c(-c3nc(-c4ccccc4)no3)cc(=O)oc2c1

- absorption maximum (in ClCCl): 490 nm
SMILES: CCCCCCCCOc1cc(/C=C/c2cc[n+](Cc3ccc(C)cc3)cc2)c(OCCCCCCCC)cc1/C=C/c1cc[n+](Cc2ccc(C)cc2)cc1

- absorption maximum (in ClCCl): 382 nm
SMILES: O=c1c2cc(C#Cc3ccc(Cl)cc3)ccc2nc2ccc(C#Cc3ccc(Cl)cc3)cn12

- absorption maximum (in CC#N): 324 nm
SMILES: N#Cc1cccc(-c2pc3ccccc3s2)c1 (centres undefined)

- absorption maximum (in CC#N): 403 nm
- absorption maximum (in ClCCCl): 420 nm
SMILES: c1ccc(-c2cc(-c3ccccc3)[o+]c(-c3ccccc3)c2)cc1

- absorption maximum (in ClCCl): 310 nm
SMILES: COC(=O)C1=C(C(=O)OC)C2(c3ccccc3-c3ccccc32)[C@@H](c2ccc([N+](=O)[O-])cc2)C=C2c3cc(OC)c(OC)cc3CCN21

- absorption maximum (in CCO): 682 nm
SMILES: N#CC1=c2cc3c4c(c2Oc2c1cc1c5c2CCCN5CCC1)CCC[N+]=4CCC3

SMILES: O=Cc1cc(C=O)c2ccc3c(N4CCCCC4)cc(N4CCCCC4)c4ccc1c2c43
- absorption maximum (in C1COCCO1): 512 nm
- absorption maximum (in CC#N): 525 nm
- absorption maximum (in CC(C)=O): 521 nm
- absorption maximum (in CCCCCC): 498 nm
- absorption maximum (in CCO): 522 nm
- absorption maximum (in CCOC(C)=O): 514 nm
- absorption maximum (in CO): 523 nm
- absorption maximum (in CS(C)=O): 535 nm
- absorption maximum (in Cc1ccccc1): 516 nm
- absorption maximum (in ClCCl): 534 nm

SMILES: Fc1c(-n2c3ccccc3c3ccccc32)c(F)c(-n2c3ccccc3c3ccccc32)c(-c2nnc(-c3ccccc3)o2)c1-n1c2ccccc2c2ccccc21
- absorption maximum (in Cc1ccccc1): 345 nm

- absorption maximum (in C1COCCO1): 343 nm
SMILES: c1ccc(-c2nc(-c3nc(-c4ccccc4)c(-c4ccccc4)o3)oc2-c2ccccc2)cc1

- absorption maximum (in CC#N): 340 nm
- absorption maximum (in CCCCCC): 335 nm
- absorption maximum (in CCO): 339 nm
- absorption maximum (in CN(C)C=O): 343 nm
- absorption maximum (in CO): 340 nm
- absorption maximum (in ClC(Cl)Cl): 342 nm
SMILES: COc1ccc(-n2nc(C#N)c(N3CCCC3)n2)cc1

- absorption maximum (in O): 454 nm
SMILES: CC[n+]1c(-c2ccccc2)c2cc(NC(N)=[NH2+])ccc2c2ccc(N)cc21

- absorption maximum (in C1CCOC1): 395 nm
SMILES: CCCCOc1cc(C=C2c3ccccc3-c3ccccc32)c(OCCCC)cc1C=C1c2ccccc2C=Cc2ccccc21

SMILES: OC1(c2ccc(-c3cccs3)s2)CCC1
- absorption maximum (in C1CCOC1): 311 nm
- absorption maximum (in CC#N): 309 nm
- absorption maximum (in CCCCCC): 308 nm
- absorption maximum (in CCO): 310 nm
- absorption maximum (in OCCOCCO): 314 nm
- absorption maximum (in c1ccncc1): 316 nm

- absorption maximum (in C1CCCCC1): 405 nm
- absorption maximum (in CC#N): 406 nm
- absorption maximum (in CO): 405 nm
- absorption maximum (in ClCCl): 409 nm
SMILES: COc1c2ccccc2c(OC)c2c1c1ccccc1n2C

- absorption maximum (in CC#N): 331 nm
SMILES: FC(F)(F)c1ccc(-c2pc3ccccc3s2)cc1 (centres undefined)

- absorption maximum (in C1CCOC1): 365 nm
SMILES: CCCCC1(CCCC)c2cc(C#Cc3ccc(/C=C(\C)c4ccccc4)cc3)ccc2-c2ccc(C#Cc3ccc(/C=C(\C)c4ccccc4)cc3)cc21

- absorption maximum (in O): 276 nm
SMILES: Cc1ccc(O)cc1

- absorption maximum (in CO): 567 nm
SMILES: CCN(C)c1ccc(C2=C3C(C)=CC(/C=C/c4ccc(OCC(=O)OC)cc4)=[N+]3[B-](F)(F)n3c(C)cc(C)c32)cc1

SMILES: Cc1cc(-c2nnc(-c3c(C(C)C)cc(C(C)C)cc3C(C)C)o2)ccc1-n1c2ccccc2c2ccccc21
- absorption maximum (in Cc1ccccc1): 339 nm

SMILES: CC\C=C/C=C/C=C/C=C\CCCCCCCC(=O)O
- absorption maximum (in C1COCCO1): 322.7 nm
- absorption maximum (in CCCCCC): 318.9 nm
- absorption maximum (in CCCCCCCCCC): 320.8 nm
- absorption maximum (in CCCCO): 320.6 nm
- absorption maximum (in CCO): 319.2 nm
- absorption maximum (in CCOCC): 318.8 nm
- absorption maximum (in CO): 318.6 nm
- absorption maximum (in ClC(Cl)Cl): 324.8 nm
- absorption maximum (in c1ccccc1): 325.3 nm

SMILES: c1ccc(-c2nc3ccccc3nc2-c2cc(-c3nc4ccccc4nc3-c3ccccc3)cc(-n3c4ccccc4c4ccccc43)c2)cc1
- absorption maximum (in Cc1ccccc1): 340 nm

- absorption maximum (in CC#N): 342 nm
- absorption maximum (in CCCCCC): 347 nm
- absorption maximum (in CO): 364 nm
- absorption maximum (in CS(C)=O): 351 nm
- absorption maximum (in ClC(Cl)Cl): 343 nm
SMILES: C/C(=N\Nc1ccc(C#N)cc1)c1ccccn1

- absorption maximum (in ClC(Cl)Cl): 515 nm
SMILES: CC1=CC(C)=[N+]2C1=C(C1=C3C(C)=CC(C)=[N+]3[B-](F)(F)n3c(C)cc(C)c31)c1c(C)cc(C)n1[B-]2(F)F

SMILES: c1cc2cc(c1)c1ccc3ccc4ccc(cc4c3c1)c1ccc3ccc4ccc(cc4c3c1)c1cccc2c1
- absorption maximum (in Cc1ccccc1): 355 nm

- absorption maximum (in CCCCCC): 442 nm
- absorption maximum (in CO): 448 nm
SMILES: O=C1C=C(Nc2ccccc2F)C(=O)c2ccccc21

SMILES: c1ccc(-c2ccccc2)cc1
- absorption maximum (in C1CCCCC1): 254.13 nm
- absorption maximum (in C1COCCO1): 246 nm

- absorption maximum (in C1CCCCC1): 318 nm
- absorption maximum (in CC#N): 308 nm
- absorption maximum (in CCO): 309 nm
- absorption maximum (in CCOC(C)=O): 317 nm
SMILES: COC(=O)c1nc(-c2cccc3ccccc23)oc1C

- absorption maximum (in CC#N): 276 nm
- absorption maximum (in CO): 276 nm
- absorption maximum (in O): 275 nm
SMILES: CNCCCN1c2ccccc2CCc2ccccc21

SMILES: CCCC1=Cc2nc1ccc1[nH]c(cc1CCC)c1nc(c(OC(C)=O)cc3[nH]c2cc3CCC)C(CCC)=C1
- absorption maximum (in Cc1ccccc1): 645 nm

- absorption maximum (in C1CCCCC1): 360 nm
- absorption maximum (in CC#N): 359 nm
- absorption maximum (in CO): 359 nm
- absorption maximum (in ClC(Cl)Cl): 362 nm
SMILES: CC1(C)CC(/N=C/c2ccc3ccc4cccc5ccc2c3c45)CC(C)(C)N1[O]

- absorption maximum (in CCO): 390 nm
- absorption maximum (in ClCCl): 393 nm
SMILES: c1ccc(-c2c3ccccc3c(-c3ncccn3)c3ccccc23)cc1

- absorption maximum (in C1CCOC1): 584 nm
- absorption maximum (in CCCCCC): 583 nm
- absorption maximum (in CO): 583 nm
- absorption maximum (in CS(C)=O): 587 nm
- absorption maximum (in ClC(Cl)Cl): 584 nm
- absorption maximum (in ClCCl): 583 nm
SMILES: CC1=[N+]2C(=c3c4c5ccccc5cc5cccc(c6cc(C)n(c36)[B-]2(F)F)c54)C=C1

- absorption maximum (in CCO): 538 nm
- absorption maximum (in O): 549 nm
SMILES: CN(C)c1ccc2c(-c3cc(C(=O)[O-])ccc3C(=O)[O-])c3ccc(=[N+](C)C)cc-3oc2c1

- absorption maximum (in CCCCCC): 493 nm
- absorption maximum (in CO): 493 nm
- absorption maximum (in ClCCl): 498 nm
SMILES: CC1=CC(C)=[N+]2C1=Cc1cccn1[B-]2(F)F

- absorption maximum (in ClCCl): 337 nm
SMILES: O=C1c2ccccc2-c2nc3c(F)c(F)c(F)c(F)c3n21

- absorption maximum (in CC#N): 459 nm
SMILES: CCN(CC)c1ccc2cc(/C=C/c3ccc([N+](=O)[O-])cc3)c(=O)oc2c1

- absorption maximum (in ClC(Cl)Cl): 346 nm
SMILES: CC(C)(C)c1ccc2oc3nc4oc5ccc(-n6c7ccc(C(C)(C)C)cc7c7cc(C(C)(C)C)ccc76)cc5c4cc3c2c1

- absorption maximum (in ClC(Cl)Cl): 582 nm
SMILES: CCCCCCCCn1c(=O)c2cc3c(C#Cc4ccc(N(c5ccccc5)c5ccccc5)cc4)c4cc5c(=O)n(CCCCCCCC)c(=O)c5cc4c(C#Cc4ccc(N(c5ccccc5)c5ccccc5)cc4)c3cc2c1=O

- absorption maximum (in ClC(Cl)Cl): 744 nm
SMILES: Cc1ccc(/C2=c3\cc/c(o3)=C(\c3ccc(C)cc3)c3ccc([nH]3)-c3ccc4n3[P-](=O)(=O)[N+]3=C(C=CC3=C4c3ccco3)c3ccc2[nH]3)cc1

SMILES: COCCC1=Cc2nc1ccc1[nH]c(c3nc(ccc4[nH]c2cc4CCOC)C(CCOC)=C3)c(CN(C)C)c1CCOC
- absorption maximum (in Cc1ccccc1): 643 nm

SMILES: COc1ccc(N2c3ccc4ccccc4c3-c3c4ccccc4cc[n+]3[B-]2(c2ccccc2)c2ccccc2)cc1
- absorption maximum (in Cc1ccccc1): 520 nm

- absorption maximum (in CC#N): 716 nm
- absorption maximum (in CCO): 708 nm
- absorption maximum (in CO): 710 nm
- absorption maximum (in ClC(Cl)Cl): 722 nm
SMILES: CCNc1cc2c(cc1C)C(c1ccccc1C(=O)O)=C1CCCC(/C=C/C3=[N+](C)c4ccc5ccccc5c4C3(C)C)=C1O2

- absorption maximum (in c1ccccc1): 410 nm
SMILES: COc1ccc(-c2nc3c(ccc4ccccc43)oc2=O)cc1

SMILES: CCn1c2ccccc2c2cc(/C=C/c3cc(/C=C/c4ccc5c(c4)c4ccccc4n5CC)nc(SC)n3)ccc21
- absorption maximum (in C1CCOC1): 406 nm
- absorption maximum (in CCOC(C)=O): 402 nm
- absorption maximum (in CN(C)C=O): 413 nm
- absorption maximum (in Cc1ccccc1): 405 nm
- absorption maximum (in ClCCl): 409 nm

- absorption maximum (in CC#N): 315 nm
- absorption maximum (in ClCCl): 318 nm
SMILES: CC(=O)Nc1cccc2c1C#Cc1c(cccc1C(=O)N(C)C)OCCCO2

- absorption maximum (in C1CCCCC1): 430 nm
- absorption maximum (in CO): 450 nm
SMILES: CN(C)c1ccc(/C=C(\C#N)c2nc3ccccc3s2)cc1

- absorption maximum (in c1ccccc1): 344 nm
SMILES: O=c1oc2ccccc2nc1-c1ccc(Cl)cc1

SMILES: CCOC(=O)/C(C#N)=C\c1ccc2c(c1)c1ccccc1n2-c1ccc(C)cc1
- absorption maximum (in C1CCOC1): 390 nm
- absorption maximum (in CC#N): 389 nm
- absorption maximum (in CC(C)=O): 388 nm
- absorption maximum (in CCOC(C)=O): 400 nm
- absorption maximum (in CO): 391 nm
- absorption maximum (in CS(C)=O): 397 nm
- absorption maximum (in Cc1ccccc1): 396 nm
- absorption maximum (in ClC(Cl)Cl): 389 nm

- absorption maximum (in ClCCl): 456 nm
SMILES: CC(C)(C)c1ccc(-c2cc3c(-c4ccc(C(C)(C)C)cc4)c4cccc5c(-c6ccc(C(C)(C)C)cc6)cc6c(-c7ccc(C(C)(C)C)cc7)c7cccc2c7c3c6c54)cc1

- absorption maximum (in CCO): 637 nm
- absorption maximum (in CO): 634 nm
- absorption maximum (in CS(C)=O): 643 nm
- absorption maximum (in O): 632 nm
SMILES: CN1/C(=C/C=C(/C=C/C2=[N+](C)c3ccccc3C2(C)C)c2ccc(C(F)(F)F)cc2)C(C)(C)c2ccccc21

- absorption maximum (in ClC(Cl)Cl): 425 nm
SMILES: Fc1cccc(C2=Cc3ccc4ccccc4[n+]3[B-](F)(F)O2)c1
